These results are taken from US20070191288A1, “Treatments for Benign Tumors, Cancers, Neoplasias, and/or Other Inflammatory Disorders or Diseases” (priority 2002, published 2007).

Test [1] relates to lipoma. Nature of the test: Effects of topiramate on lipoma in a dog. Type of test: in vivo. As to conditions: 12-year-old female German Shorthaired Pointer (30.8 kg), large lipoma on right rib cage; topiramate 25 mg/day once per day, 59 days versus 24 days. The method, then:
FIG. 1A, depicts the size of a lipoma on a dog treated with topiramate for 24 days. FIG. 1B illustrates the reduction in lipoma size on the dog after topiramate had been administered for 59 days (25 mg/day administered once per day).

Test [2] has as its system simple and complex partial seizures and secondarily generalized seizures. As to conditions: clinical trials of human epilepsy; adjunctive therapy or monotherapy; cited from earlier work.

As for `CC1(C)O[C@@H]2[C@@H](CO[C@@]3(COS(N)(=O)=O)OC(C)(C)O[C@@H]23)O1` [topiramate, 2,3:4,5-bis-O-(1-methylethylidene)-β-D-fructopyranose sulfamate], in test [1], the “reduction in lipoma size/mass” value is given as “shrunk considerably”. Besides, the “efficacy in treating simple and complex partial seizures and secondarily generalized seizures” value in test [2] was “effective”.
